Results as given in ChEMBL document CHEMBL1201862, “PubChem BioAssay data set” (2004).
Calls of active or inactive are those of the source.

How the values were obtained:
Caspase-8 = Caspase-8 (Homo sapiens, UniProt Q14790); assay: caspase-8 inhibition counter-screen, dose response, selectivity assay for caspase-6 inhibitor project, biochemical, Z-IETD-R110 fluorescence, cherry-picked samples (AID 743294)
Caspase-3 = target: T1, Caspase-3 (Homo sapiens, UniProt P42574); assay: SAR Analysis of small molecule inhibitors of Sentrin-specific proteases (SENPs) using a Caspase-3 Selectivity assay. [Related pubchem assays (depositor defined):AID2540, AID2599, AID434973, AID489001]; type: functional
T1 sequence (P42574 whole entry): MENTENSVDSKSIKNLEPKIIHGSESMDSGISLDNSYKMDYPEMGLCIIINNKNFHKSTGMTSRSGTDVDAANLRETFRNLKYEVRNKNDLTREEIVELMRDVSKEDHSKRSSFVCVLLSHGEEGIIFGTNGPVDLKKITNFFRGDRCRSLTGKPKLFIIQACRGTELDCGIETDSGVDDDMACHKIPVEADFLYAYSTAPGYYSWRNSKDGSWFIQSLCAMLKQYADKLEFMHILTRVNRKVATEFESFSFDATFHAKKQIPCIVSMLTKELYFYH

[1] = target: Megakaryocyte-associated tyrosine-protein kinase (Homo sapiens, UniProt P42679); type: functional;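 note: affinity measured as one member of a kinase panel (Navigating the Kinome) against MATK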
[2] = target: cGMP-dependent protein kinase 1 (Homo sapiens, UniProt Q13976); type: functional;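 note: value from a kinome panel screen with PRKG1 as the panel member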
[3] = target: 5'-AMP-activated protein kinase catalytic subunit alpha-1 (Homo sapiens, UniProt Q13131); type: functional
[4] = target: Proto-oncogene tyrosine-protein kinase receptor Ret (Homo sapiens, UniProt P07949); type: functional;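 note: measured within a kinome-wide profiling panel, RET as the panel member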
[5] = target: Serine/threonine-protein kinase D2 (Homo sapiens, UniProt Q9BZL6); type: functional;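 note: measured against PRKD2 as one member of a kinome-wide kinase profiling panel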
[6] = target: Calcium/calmodulin-dependent protein kinase type II subunit gamma (Homo sapiens, UniProt Q13555); type: functional
Calcium/calmodulin-dependent protein kinase type II subunit gamma, sequence (Q13555 whole entry): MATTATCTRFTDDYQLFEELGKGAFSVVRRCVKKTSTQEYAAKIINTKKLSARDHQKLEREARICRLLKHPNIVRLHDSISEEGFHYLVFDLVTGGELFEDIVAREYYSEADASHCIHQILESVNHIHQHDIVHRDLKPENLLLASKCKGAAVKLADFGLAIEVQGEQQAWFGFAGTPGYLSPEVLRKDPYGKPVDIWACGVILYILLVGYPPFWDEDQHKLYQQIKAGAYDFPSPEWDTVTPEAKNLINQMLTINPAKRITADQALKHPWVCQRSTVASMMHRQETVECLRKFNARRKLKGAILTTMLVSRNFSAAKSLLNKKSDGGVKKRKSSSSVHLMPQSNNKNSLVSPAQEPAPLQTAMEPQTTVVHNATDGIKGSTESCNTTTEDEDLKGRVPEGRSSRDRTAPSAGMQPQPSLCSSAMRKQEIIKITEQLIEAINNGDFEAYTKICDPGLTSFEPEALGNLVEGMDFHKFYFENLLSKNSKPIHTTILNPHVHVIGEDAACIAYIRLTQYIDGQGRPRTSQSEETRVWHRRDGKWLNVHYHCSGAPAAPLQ

[7] = target: Serine/threonine-protein kinase D3 (Homo sapiens, UniProt O94806); type: functional;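 note: determined within a kinase panel screen, with PRKCN as the panel member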
SRSF protein kinase 1 = SRSF protein kinase 1 (Homo sapiens, UniProt Q96SB4); type: functional;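 note: measured as one member of a kinome-wide kinase profiling panel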
[8] = target: MAP kinase-activated protein kinase 5 (Homo sapiens, UniProt Q8IW41); type: functional;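 note: measured as one member of a kinome panel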
[9] = target: Tyrosine-protein kinase BTK (Homo sapiens, UniProt Q06187); type: functional
[10] = target: Casein kinase II subunit alpha (Homo sapiens, UniProt P68400); type: functional
[11] = target: Serine/threonine-protein kinase PAK 1 (Homo sapiens, UniProt Q13153); type: functional
[12] = target: Testis-specific serine/threonine-protein kinase 1 (Homo sapiens, UniProt Q9BXA7); type: functional
[13] = target: Serine/threonine-protein kinase pim-3 (Homo sapiens, UniProt Q86V86); type: functional;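 note: value obtained as one member of a broad kinase panel profiling effort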
[14] = target: Proto-oncogene tyrosine-protein kinase Src (Homo sapiens, UniProt P12931); type: functional;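 note: SRC entry within a kinome-wide kinase profiling panel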
Proto-oncogene tyrosine-protein kinase Src, sequence (P12931 2-536 limits assumed): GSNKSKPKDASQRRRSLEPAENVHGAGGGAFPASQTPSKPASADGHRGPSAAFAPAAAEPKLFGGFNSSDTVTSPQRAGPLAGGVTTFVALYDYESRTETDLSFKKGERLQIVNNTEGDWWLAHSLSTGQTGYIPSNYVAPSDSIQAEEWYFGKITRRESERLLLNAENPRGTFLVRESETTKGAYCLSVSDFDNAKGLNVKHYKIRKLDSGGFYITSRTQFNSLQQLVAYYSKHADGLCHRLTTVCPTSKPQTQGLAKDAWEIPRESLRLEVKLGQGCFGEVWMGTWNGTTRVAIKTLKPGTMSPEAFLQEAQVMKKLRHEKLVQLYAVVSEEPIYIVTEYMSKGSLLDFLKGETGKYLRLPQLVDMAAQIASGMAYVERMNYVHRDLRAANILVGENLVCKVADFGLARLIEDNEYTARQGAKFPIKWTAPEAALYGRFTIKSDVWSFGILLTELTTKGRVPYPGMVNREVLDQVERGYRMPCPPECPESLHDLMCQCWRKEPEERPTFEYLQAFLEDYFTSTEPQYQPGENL

[15] = target: Mitogen-activated protein kinase kinase kinase kinase 2 (Homo sapiens, UniProt Q12851); type: functional;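 note: measured as one member of a kinome-wide kinase panel, with MAP4K2 as the panel entry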
[16] = target: Casein kinase I isoform delta (Homo sapiens, UniProt P48730); type: functional;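 note: measured as one member (CSNK1D) of a kinome panel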
Ephrin type-A receptor 2 = Ephrin type-A receptor 2 (Homo sapiens, UniProt P29317); type: functional;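 note: EPHA2 tested as one member of a kinome-wide kinase panel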
[17] = target: Insulin-like growth factor 1 receptor (Homo sapiens, UniProt P08069); assay: Navigating the Kinome. Panel member name: IGF1R; type: functional
Aurora kinase B = Aurora kinase B (Homo sapiens, UniProt Q96GD4); type: functional
[18] = target: Rho-associated protein kinase 1 (Homo sapiens, UniProt Q13464); type: functional;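 note: measured within a broad kinome-wide panel profiling many kinases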
Rho-associated protein kinase 1, sequence (Q13464 whole entry): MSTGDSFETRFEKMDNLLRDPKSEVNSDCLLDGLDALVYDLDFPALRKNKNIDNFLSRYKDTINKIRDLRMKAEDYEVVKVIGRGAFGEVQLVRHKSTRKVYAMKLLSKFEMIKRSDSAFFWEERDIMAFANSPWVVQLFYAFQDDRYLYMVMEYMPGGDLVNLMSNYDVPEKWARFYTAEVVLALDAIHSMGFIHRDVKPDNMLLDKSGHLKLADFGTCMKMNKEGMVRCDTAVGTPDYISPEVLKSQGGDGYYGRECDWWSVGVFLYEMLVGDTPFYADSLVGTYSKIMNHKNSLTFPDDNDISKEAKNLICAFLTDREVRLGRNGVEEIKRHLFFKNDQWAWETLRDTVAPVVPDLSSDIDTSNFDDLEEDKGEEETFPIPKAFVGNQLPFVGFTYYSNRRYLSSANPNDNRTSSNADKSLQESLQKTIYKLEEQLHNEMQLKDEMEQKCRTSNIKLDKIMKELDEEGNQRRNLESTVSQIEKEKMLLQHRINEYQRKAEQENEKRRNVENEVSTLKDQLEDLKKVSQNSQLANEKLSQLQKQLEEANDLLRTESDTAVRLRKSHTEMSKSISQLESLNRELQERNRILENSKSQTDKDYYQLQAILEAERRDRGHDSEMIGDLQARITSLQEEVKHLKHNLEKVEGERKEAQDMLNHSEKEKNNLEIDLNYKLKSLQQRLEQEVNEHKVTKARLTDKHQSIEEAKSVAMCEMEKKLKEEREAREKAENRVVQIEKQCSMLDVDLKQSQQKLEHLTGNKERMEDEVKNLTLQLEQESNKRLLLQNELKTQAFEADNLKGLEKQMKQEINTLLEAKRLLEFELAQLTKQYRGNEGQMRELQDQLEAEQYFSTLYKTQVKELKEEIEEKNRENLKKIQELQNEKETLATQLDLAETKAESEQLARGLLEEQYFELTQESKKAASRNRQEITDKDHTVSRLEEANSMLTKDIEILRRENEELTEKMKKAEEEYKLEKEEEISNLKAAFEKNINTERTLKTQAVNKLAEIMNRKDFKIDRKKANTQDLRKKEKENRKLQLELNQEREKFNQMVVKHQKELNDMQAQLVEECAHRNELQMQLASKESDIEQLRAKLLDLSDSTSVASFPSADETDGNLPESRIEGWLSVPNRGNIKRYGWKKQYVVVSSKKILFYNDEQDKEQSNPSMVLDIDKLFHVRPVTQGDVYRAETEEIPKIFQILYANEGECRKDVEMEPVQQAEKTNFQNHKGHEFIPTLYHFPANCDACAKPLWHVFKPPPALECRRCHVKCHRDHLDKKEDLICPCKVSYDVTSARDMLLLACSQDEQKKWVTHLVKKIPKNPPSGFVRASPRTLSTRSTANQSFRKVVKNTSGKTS

[19] = target: Calcium/calmodulin-dependent protein kinase type 1 (Homo sapiens, UniProt Q14012); type: functional
[20] = target: Serine/threonine-protein kinase PLK1 (Homo sapiens, UniProt P53350); type: functional;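 note: PLK1 measured as one member of a kinome-wide profiling panel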
Serine/threonine-protein kinase PLK1, sequence (P53350 whole entry): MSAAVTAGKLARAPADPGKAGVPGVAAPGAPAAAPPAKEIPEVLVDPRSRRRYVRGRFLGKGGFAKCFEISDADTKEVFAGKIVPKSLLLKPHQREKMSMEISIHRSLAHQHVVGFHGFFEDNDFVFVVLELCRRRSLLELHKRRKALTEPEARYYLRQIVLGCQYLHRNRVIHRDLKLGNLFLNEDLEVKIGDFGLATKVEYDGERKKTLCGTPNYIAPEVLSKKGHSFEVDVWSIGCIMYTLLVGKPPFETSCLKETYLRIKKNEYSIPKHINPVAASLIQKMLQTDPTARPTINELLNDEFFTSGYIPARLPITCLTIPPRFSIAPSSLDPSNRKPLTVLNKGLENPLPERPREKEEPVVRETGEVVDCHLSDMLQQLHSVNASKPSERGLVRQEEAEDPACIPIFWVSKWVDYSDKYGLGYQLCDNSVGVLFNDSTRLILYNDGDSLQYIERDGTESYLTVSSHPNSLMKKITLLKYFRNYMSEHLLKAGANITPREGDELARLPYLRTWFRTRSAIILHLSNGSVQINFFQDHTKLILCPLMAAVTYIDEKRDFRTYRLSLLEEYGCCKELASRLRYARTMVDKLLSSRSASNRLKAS

[21] = target: Serine/threonine-protein kinase MRCK alpha (Homo sapiens, UniProt Q5VT25); type: functional
Serine/threonine-protein kinase MRCK alpha, sequence (Q5VT25 whole entry): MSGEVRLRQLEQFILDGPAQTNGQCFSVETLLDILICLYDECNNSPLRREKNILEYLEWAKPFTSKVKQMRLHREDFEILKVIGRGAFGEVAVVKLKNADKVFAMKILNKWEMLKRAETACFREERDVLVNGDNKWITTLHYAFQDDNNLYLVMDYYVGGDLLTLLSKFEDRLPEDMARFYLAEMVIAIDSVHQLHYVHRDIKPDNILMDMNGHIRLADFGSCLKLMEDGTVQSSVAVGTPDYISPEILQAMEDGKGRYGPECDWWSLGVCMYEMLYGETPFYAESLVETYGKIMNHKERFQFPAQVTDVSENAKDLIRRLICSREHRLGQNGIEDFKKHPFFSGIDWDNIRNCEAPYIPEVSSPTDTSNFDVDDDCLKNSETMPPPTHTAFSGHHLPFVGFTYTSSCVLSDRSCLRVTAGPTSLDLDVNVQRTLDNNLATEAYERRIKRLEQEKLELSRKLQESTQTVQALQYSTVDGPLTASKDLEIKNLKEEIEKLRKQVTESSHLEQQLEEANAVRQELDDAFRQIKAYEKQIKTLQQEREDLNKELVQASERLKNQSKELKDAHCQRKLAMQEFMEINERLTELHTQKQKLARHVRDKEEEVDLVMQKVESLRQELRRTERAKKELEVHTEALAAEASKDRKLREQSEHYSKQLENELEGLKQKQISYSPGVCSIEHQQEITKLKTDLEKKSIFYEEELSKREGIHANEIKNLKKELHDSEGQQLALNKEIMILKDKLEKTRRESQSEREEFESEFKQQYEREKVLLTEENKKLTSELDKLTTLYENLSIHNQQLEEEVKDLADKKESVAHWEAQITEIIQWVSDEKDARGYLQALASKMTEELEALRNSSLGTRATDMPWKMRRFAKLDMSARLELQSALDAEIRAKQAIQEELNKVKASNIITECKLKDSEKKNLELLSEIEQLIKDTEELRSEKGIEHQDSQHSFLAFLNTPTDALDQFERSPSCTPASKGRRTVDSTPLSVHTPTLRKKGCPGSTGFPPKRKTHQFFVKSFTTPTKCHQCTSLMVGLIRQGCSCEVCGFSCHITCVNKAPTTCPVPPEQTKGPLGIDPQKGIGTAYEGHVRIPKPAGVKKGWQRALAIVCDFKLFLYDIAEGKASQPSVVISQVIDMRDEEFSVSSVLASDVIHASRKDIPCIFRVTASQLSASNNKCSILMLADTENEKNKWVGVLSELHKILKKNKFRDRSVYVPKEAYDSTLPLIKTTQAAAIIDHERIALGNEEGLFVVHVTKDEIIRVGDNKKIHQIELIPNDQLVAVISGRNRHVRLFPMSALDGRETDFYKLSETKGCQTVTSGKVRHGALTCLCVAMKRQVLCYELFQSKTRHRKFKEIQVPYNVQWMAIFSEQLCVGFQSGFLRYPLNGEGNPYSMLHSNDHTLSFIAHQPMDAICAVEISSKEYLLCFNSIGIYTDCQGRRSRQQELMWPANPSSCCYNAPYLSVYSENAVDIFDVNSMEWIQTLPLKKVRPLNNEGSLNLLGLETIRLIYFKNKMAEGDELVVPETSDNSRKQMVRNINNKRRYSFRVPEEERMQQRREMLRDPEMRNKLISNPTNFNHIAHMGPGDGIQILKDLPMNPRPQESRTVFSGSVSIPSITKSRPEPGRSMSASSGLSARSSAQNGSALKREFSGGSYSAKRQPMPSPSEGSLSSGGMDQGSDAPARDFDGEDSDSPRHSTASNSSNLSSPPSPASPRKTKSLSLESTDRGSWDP

Caspase-8, sequence (Q14790 217-374 limits assumed): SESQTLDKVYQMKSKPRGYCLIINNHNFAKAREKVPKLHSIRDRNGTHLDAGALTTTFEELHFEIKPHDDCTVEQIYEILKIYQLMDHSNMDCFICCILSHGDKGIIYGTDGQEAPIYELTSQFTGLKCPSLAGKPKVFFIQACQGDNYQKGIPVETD
Caspase-8, sequence (Q14790 385-479 limits assumed): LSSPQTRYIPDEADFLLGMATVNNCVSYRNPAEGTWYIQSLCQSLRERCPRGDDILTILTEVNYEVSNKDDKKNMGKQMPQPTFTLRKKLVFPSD

In the case of O=C(COC(=O)c1ccc([N+](=O)[O-])s1)Nc1cccc(S(=O)(=O)/N=C2/CCCCCN2)c1, the AC50 (Caspase-8) is reported as 21200 nM (active).
In the case of COc1ccc(C(C[N+](=O)[O-])c2c(C)[nH]n(-c3ccccc3)c2=O)cc1 (stereo unspecified), the IC50 (Caspase-3) is reported as 45500 nM (active).
With Oc1c2ccccc2c2c3c(cccc13)N=N2 [SP-600125] the Ki [1] was 501 nM (active), the Ki [2] was > 2000 nM (inactive) and the Ki [3] was > 1580 nM (inactive). For the same compound, the Ki [4] was 63.1 nM (active), the Ki [5] was 158 nM (active) and the Ki [6] was 1580 nM (active). For the same compound, the Ki [7] was 100 nM (active), the Ki (SRSF protein kinase 1) was > 7940 nM (inactive) and the Ki [8] was > 1580 nM (inactive). The Ki [9] was > 1260 nM (inactive), the Ki [10] was 501 nM (active) and the Ki [11] was > 10000 nM (inactive). For the same compound, the Ki [12] was > 1580 nM (inactive), the Ki [13] was 200 nM (active) and the Ki [14] was > 2000 nM (inactive). For the same compound, the Ki [15] was 50.1 nM (active), the Ki [16] was 31.6 nM (active) and the Ki (Ephrin type-A receptor 2) was > 3160 nM (inactive). For the same compound, the Ki [17] was > 2000 nM (inactive), the Ki (Aurora kinase B) was 10 nM (active) and the Ki [18] was 2000 nM (active). The Ki [19] was > 1580 nM (inactive), the Ki [20] was > 7940 nM (inactive) and the Ki [21] was > 10000 nM (inactive).
